The record followed here is article PMC8799717, “Pharmacological targeting PIKfyve and tubulin as an effective treatment strategy for double-hit lymphoma” (Cell Death Discovery, 2022).

What all share (test): biochemical
Holding throughout (set-up): KINOMEscan active-site-directed competition binding panel, 468 kinases, percent of DMSO control at 1 uM
Conditions in all cases: KINOMEscan binding, percent of DMSO control; read-out: Ctrl%

For assay [1], the target named is CSNK2A1 (Homo sapiens, UniProt P68400).
In assay [2] the target is BTK (Homo sapiens, UniProt Q06187).
The target of assay [3] is T1, p38-delta (Homo sapiens, UniProt O15264).
T1 construct: gene MAPK13

Assay [4] concerns the target MET(Y1235D) (Homo sapiens, UniProt P08581, Y1235D).
The target in assay [5] is PRKCD (Homo sapiens, UniProt Q05655).
In assay [6] the target is ACVR2B (Homo sapiens, UniProt Q13705).
The target of assay [7] is STK35 (Homo sapiens, UniProt Q8TDR2).
The target in assay [8] is T2, NDR1 (Homo sapiens, UniProt Q15208).
T2 construct: gene STK38

Assay [9] deals with TNK1 (Homo sapiens, UniProt Q13470).
Assay [10] addresses PHKG1 (Homo sapiens, UniProt Q16816).
The target of assay [11] is T3, RSK4(Kin.Dom.2-C-terminal) (Homo sapiens, UniProt Q9UK32).
T3 construct: gene RPS6KA6; Kin.Dom.2-C-terminal

Assay [12] addresses TBK1 (Homo sapiens, UniProt Q9UHD2).
Assay [13] concerns the target EPHA7 (Homo sapiens, UniProt Q15375).
Assay [14] addresses T4, DCAMKL2 (Homo sapiens, UniProt Q8N568).
T4 construct: gene DCLK2

Assay [15] concerns the target MAPKAPK5 (Homo sapiens, UniProt Q8IW41).
For assay [16], the target named is T5, CDC2L1 (Homo sapiens, UniProt P21127).
T5 construct: gene CDK11B

Assay [17] deals with T6, ABL1(H396P)-nonphosphorylated (Homo sapiens, UniProt P00519, H396P).
T6 construct: nonphosphorylated

In assay [18] the target is ANKK1 (Homo sapiens, UniProt Q8NFD2).
Assay [19] concerns the target T7, MKK7 (Homo sapiens, UniProt O14733).
T7 construct: gene MAP2K7

For assay [20], the target named is MAP4K2 (Homo sapiens, UniProt Q12851).
For assay [21], the target named is PDPK1 (Homo sapiens, UniProt O15530).
The target of assay [22] is TSSK3 (Homo sapiens, UniProt Q96PN8).
For assay [23], the target named is PRKCH (Homo sapiens, UniProt P24723).
The target in assay [24] is TGFBR2 (Homo sapiens, UniProt P37173).

Chain of TNK1 (Q13470 whole entry): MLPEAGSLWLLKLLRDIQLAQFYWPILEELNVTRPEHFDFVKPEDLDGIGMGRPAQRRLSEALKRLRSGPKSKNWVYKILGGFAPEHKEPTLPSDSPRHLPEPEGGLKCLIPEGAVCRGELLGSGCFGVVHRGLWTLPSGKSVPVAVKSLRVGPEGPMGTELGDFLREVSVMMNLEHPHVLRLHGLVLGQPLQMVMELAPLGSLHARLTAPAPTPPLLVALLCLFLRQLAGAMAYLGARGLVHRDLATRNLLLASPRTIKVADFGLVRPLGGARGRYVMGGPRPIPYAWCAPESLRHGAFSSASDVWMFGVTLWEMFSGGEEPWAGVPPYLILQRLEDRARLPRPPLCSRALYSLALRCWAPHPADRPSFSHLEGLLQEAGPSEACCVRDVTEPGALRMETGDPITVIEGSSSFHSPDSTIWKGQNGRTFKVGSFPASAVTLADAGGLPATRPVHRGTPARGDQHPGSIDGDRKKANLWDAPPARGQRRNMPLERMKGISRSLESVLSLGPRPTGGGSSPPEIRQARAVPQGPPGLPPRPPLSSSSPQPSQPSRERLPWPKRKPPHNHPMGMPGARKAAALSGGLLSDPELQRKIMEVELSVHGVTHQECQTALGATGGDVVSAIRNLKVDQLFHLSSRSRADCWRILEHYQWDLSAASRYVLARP
Chain of STK35 (Q8TDR2 whole entry): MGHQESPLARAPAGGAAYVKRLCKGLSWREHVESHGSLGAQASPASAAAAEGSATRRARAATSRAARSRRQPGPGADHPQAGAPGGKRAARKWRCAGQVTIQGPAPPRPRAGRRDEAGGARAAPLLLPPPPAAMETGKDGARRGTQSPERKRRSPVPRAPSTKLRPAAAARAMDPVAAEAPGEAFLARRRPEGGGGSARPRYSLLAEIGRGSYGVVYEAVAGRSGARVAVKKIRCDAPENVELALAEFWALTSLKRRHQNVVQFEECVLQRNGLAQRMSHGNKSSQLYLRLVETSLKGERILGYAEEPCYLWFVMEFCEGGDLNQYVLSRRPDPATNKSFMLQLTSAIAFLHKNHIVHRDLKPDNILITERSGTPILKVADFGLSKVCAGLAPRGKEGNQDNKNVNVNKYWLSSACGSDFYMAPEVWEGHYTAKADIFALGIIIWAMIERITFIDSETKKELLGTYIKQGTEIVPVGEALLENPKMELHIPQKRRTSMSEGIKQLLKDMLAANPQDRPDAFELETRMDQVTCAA
Chain of PRKCH (P24723 whole entry): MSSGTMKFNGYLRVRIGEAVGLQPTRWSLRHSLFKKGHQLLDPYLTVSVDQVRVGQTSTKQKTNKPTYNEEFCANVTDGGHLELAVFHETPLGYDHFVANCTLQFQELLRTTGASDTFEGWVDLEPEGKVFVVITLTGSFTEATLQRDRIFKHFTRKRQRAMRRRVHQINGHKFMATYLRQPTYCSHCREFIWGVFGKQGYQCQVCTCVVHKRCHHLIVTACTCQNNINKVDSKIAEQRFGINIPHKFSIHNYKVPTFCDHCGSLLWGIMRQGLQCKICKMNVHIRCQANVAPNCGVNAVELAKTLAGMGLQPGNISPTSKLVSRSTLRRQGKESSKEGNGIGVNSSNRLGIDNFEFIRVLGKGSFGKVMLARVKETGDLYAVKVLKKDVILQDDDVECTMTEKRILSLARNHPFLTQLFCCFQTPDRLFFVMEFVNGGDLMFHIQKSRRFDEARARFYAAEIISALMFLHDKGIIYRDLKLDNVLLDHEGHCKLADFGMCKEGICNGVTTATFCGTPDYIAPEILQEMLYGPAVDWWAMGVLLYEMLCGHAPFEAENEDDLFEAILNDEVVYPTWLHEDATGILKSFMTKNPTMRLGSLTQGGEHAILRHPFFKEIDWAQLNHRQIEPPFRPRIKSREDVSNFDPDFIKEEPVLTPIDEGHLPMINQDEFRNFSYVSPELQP
T7 sequence (O14733 whole entry): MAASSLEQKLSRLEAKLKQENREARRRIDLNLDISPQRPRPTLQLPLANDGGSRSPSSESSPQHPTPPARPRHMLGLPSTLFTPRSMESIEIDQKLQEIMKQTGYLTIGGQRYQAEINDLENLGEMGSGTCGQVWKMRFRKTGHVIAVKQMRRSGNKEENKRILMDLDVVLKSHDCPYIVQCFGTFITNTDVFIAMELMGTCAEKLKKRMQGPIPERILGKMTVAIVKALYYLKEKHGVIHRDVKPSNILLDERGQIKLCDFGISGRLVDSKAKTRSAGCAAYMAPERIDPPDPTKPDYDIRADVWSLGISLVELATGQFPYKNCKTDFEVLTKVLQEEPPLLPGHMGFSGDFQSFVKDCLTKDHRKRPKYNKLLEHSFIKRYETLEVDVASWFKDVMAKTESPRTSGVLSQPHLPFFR
Chain of MAPKAPK5 (Q8IW41 whole entry): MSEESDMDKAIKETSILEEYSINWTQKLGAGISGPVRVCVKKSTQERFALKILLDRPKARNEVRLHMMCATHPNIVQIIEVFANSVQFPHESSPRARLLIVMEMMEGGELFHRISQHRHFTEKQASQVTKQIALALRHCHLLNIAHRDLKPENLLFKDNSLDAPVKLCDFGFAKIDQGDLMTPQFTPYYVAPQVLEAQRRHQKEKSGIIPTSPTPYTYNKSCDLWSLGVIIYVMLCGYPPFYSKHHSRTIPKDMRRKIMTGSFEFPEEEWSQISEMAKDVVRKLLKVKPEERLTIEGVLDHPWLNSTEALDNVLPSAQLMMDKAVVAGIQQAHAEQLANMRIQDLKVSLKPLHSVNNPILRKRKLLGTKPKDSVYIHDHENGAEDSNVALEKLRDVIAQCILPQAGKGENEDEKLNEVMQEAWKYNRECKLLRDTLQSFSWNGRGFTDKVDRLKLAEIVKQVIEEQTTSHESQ
Chain of TBK1 (Q9UHD2 whole entry): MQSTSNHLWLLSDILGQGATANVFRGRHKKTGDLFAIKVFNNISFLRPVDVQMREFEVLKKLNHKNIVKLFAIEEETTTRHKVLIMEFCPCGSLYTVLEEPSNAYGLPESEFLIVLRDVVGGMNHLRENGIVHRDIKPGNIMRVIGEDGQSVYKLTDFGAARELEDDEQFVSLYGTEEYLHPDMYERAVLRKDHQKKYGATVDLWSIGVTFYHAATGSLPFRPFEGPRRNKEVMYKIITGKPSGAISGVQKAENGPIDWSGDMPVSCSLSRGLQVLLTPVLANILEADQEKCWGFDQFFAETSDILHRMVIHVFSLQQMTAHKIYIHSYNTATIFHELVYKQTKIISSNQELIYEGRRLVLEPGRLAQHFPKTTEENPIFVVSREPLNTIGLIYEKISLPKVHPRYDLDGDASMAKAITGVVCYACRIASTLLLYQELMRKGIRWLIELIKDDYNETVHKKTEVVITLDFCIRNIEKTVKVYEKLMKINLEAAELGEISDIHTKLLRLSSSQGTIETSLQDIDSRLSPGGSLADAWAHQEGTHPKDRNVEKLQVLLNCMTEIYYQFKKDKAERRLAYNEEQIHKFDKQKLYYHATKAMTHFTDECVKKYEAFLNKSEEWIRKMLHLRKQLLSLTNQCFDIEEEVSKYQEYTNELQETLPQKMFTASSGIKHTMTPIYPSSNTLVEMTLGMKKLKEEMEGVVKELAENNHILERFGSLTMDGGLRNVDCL
T1 sequence (O15264 whole entry): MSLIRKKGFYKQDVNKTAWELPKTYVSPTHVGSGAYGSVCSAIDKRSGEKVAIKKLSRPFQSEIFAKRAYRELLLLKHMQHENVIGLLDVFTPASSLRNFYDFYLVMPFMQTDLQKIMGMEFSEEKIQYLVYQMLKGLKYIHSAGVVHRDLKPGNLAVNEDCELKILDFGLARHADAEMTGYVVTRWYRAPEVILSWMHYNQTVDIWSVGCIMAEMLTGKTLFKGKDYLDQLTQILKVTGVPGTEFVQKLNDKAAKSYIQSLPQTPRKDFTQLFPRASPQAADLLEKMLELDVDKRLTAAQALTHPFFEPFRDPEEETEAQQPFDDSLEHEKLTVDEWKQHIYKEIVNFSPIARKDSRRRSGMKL
T2 sequence (Q15208 whole entry): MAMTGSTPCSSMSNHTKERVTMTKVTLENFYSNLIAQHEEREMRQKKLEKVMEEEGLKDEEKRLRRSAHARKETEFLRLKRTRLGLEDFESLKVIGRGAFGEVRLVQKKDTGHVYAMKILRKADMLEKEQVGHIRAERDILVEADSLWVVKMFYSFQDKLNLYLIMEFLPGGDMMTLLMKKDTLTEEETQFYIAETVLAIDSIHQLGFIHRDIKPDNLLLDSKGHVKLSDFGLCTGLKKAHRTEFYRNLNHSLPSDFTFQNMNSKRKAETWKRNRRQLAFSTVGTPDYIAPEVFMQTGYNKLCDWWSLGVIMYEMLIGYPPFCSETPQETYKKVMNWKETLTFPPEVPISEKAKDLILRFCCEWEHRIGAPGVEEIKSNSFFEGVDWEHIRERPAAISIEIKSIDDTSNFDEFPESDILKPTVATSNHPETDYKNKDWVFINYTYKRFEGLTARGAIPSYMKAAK
Chain of TSSK3 (Q96PN8 whole entry): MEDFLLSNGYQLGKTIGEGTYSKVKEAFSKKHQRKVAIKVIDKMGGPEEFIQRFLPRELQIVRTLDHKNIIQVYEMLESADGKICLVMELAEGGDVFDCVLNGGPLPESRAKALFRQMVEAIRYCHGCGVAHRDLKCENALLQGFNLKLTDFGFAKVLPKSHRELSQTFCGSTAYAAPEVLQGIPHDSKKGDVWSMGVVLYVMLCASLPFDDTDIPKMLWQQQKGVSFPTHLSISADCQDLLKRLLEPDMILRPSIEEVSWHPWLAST
Chain of PHKG1 (Q16816 whole entry): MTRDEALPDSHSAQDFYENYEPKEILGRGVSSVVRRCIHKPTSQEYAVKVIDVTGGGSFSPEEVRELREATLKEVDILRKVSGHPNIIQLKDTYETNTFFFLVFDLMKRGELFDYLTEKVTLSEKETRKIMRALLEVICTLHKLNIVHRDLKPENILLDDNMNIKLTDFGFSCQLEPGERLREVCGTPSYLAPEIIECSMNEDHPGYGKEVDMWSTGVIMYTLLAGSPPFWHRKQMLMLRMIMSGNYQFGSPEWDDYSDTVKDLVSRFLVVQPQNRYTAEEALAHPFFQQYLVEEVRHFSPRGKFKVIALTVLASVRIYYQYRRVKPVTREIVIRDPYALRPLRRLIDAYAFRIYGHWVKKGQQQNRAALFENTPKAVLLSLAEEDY

In the case of `Cc1ccc(NC(=O)c2cccc(C(F)(F)F)c2)cc1Nc1cc(-c2cccnc2)nc2[nH]ccc12` [HZX-02-059], the remaining binding at 1 µM came out at 81% in [1]; 100% in assay [2]; 87% in [3]; 95% in assay [4]; 96% in [5]; 71% in assay [6]. Further, the remaining binding at 1 µM was 80% in [7]; 100% in [8]; 91% in assay [9]; 97% in assay [10]; 97% in [11]; 100% in [12]. Further, the remaining binding at 1 µM came to 66% in assay [13]; 96% in [14]; 100% in assay [15]; 75% in assay [16]; 55% in assay [17]; 99% in assay [18]. The remaining binding at 1 µM in assay [19] was determined as 95%; in assay [20] it was 96%; in assay [21], 89%; in [22] it was 100%; in assay [23] it was 90%; in assay [24] it was 90%.
